The text below walks through data of publication PMC9738531, “Cholinesterases Inhibition, Anticancer and Antioxidant Activity of Novel Benzoxazole and Naphthoxazole Analogs” (Molecules, 2022).

Data set [1] has as its target T1, Acetylcholinesterase (AChE, E.C. 3.1.1.7, from human erythrocytes) (Homo sapiens, UniProt P22303).
T1 construct: Acetylcholinesterase (AChE, E.C. 3.1.1.7, from human erythrocytes); purchased Sigma-Aldrich (Steinheim, Germany); host or cells: human erythrocytes (natural source)
Put plainly: biochemical. The conditions noted are these: for IC50: means ± SEM of three independent experiments. The method, then: (§1) The compounds were evaluated by an in vitro assay as the AChE and BChE inhibitors. The studies were carried out using the modified Ellman’s method. […] The inhibitory activities against AChE and BChE of the newly-synthesized compounds were determined exactly, according to a previous paper. […] The samples were analysed in triplicate. IC50 values were designated from a dose–response curve obtained by plotting the percentage of inhibition versus the log concentration, using GraphPad Prism 8 software. […] AChE and BChE activity data were compared using the Kruskal–Wallis test at the significance level of 1%.

Data set [2] addresses T2, butyrylcholinesterase (BChE, E.C. 3.1.1.8, from equine serum) (Equus caballus, UniProt P81908).
T2 construct: butyrylcholinesterase (BChE, E.C. 3.1.1.8, from equine serum); purchased Sigma-Aldrich (Steinheim, Germany); host or cells: equine serum (natural source)
As to the kind of experiment: biochemical. The conditions noted are these: means ± SEM of three independent experiments. The method, then: as §1

The nature of data set [3]: DPPH free radical scavenging activity. The conditions noted are these: concentration scavenging 50% of DPPH radicals; means ± SD of three experiments. As to the method:
To evaluate the antioxidant potential of compounds as radical scavengers versus the stable free radicals, 2,2-diphenylpicrylhydrazyl (DPPH) was applied. Antioxidant properties were expressed as the IC50 value—the concentration of compound required for scavenging 50% of DPPH radicals. […].
The DPPH free radical scavenging activities of the synthesized compounds were measured by DPPH, according to the method described in the paper. The free radical scavenging activity was measured as a decrease in the absorbance of DPPH, and calculated using the equation:DPPH scavenging effects (%) = […] [(A0 − A1)/A0]∙100](2) where: A0 was the absorbance of the control reaction and A1 absorbance in the presence of the sample of the analysed compounds [62]. The IC50 values were calculated as the concentration of compound required for scavenging 50% of DPPH [45]. Results were presented as the mean ± standard deviation (SD). The antioxidant activity data were compared using the one-way ANOVA test at the significance level 5%.
A general note: The DPPH test is a chemical assay of radical scavenging.

For data set [4], the target named is T3, AChE (Homo sapiens, UniProt P22303).
T3 construct: Acetylcholinesterase (AChE, E.C. 3.1.1.7, from human erythrocytes); purchased Sigma-Aldrich (Steinheim, Germany); host or cells: human erythrocytes (natural source)
As to the kind of experiment: Kinetic study of AChE inhibition (Lineweaver-Burk). The class given is biochemical. The conditions noted are these: for type of AChE inhibition: Lineweaver-Burk plot. The method, then: Ellman’s method was used to prepare a kinetic characterization of AChE inhibition for compound 8. […]. The tested medium contained DTNB solution (0.4 mg/mL), AChE solution (2 U/mL), solution of the examined compound 8, and different concentrations of the ATCh iodide substrate solution (S). Absorbance was detected at 412 nm at room temperature after 10 min. The obtained data were calculated and presented on the Lineweaver–Burk plot. The determined the Michaelis–Menten constant (KM) and the maximum velocity of the enzyme (Vmax) values were used to define the type of enzyme inhibition.

In data set [5] the test system is HCV29T (bladder cancer) cells. As to the kind of experiment: SRB antiproliferative assay, HCV29T. In kind it is cell-based, human. The conditions noted are these: Homo sapiens, HCV29T, 72 h, means ± SD, read-out: IC50 HCV 29T. As to the method: (§2) The compounds were also evaluated for their antiproliferative potencies against human cancer cell lines as the potential anticancer agents. […]. The results are presented in Table 3 and expressed as IC50 (μM). In that score, the highest potency was shown by the analogs from the naphtho[1,2-d][1,3]oxazole group 8–10, particularly by derivative 10 with a chlorine atom on the benzenediol moiety.
(§3) In the antiproliferative assay in vitro, the following human cell lines were applied: T47D (breast cancer), SW707 (rectal adenocarcinoma), A549 (non-small cell lung carcinoma) from the American Type Culture Collection (Rockville, MD, USA) and HCV29T (bladder cancer) from the Fibiger Institute, Copenhagen, Denmark. Cytotoxicity assay was performed after 72 h exposure of the cultured cells at the concentration ranging from 0.1 to 100 μg/mL of the tested agents. The SRB test measuring the cell proliferation inhibition in the in vitro culture was applied. The cellular material fixed with TCA was stained with 0.4% sulforhodamine B (Chemie GmbH, Steinheim, Germany) dissolved in 1% acetic acid (POCh, Gliwice, Poland) for 30 min.

Data set [6] relates to A549 (non-small cell lung carcinoma) cells. As to the kind of experiment: SRB antiproliferative assay, A549. The class given is cell-based, human. The conditions noted are these: Homo sapiens, A549, 72 h, means ± SD. The method, then:
as §2, §3

In data set [7] the test system is T47D (breast cancer) cells. As to the kind of experiment: SRB antiproliferative assay, T47D. In kind it is cell-based, human. The conditions noted are these: Homo sapiens, T47D, 72 h, means ± SD. As to the method:
as §2, §3

Data set [8] relates to SW707 (rectal adenocarcinoma) cells. Put plainly: SRB antiproliferative assay, SW707. The conditions noted are these: Homo sapiens, SW707, 72 h, means ± SD, read-out: IC50 SW 707. In kind it is cell-based, human. The method, then: as §2, §3
Data set [9] has as its system normal mammary gland MCF10A cells. As to the kind of experiment: LDH cytotoxicity assay, MCF10A normal cells. The conditions noted are these: 72 h. The class given is cell-based, human. The method, then:
(§4) In view of the observed antiproliferative activity, the influence of the tested compounds on the normal human cells—normal mammary gland epiterial cells of the MCF10A line and the normal keratenocytes HaCaT line—was examined (Figure 5). The cells were treated with compounds 3, 8 and 10 in the concentration range from 0.1 µM to 25 µM for 72 h, after which the cell viability was tested by analysis of the level of released lactate dehydrogenase (LDH method).
(§5) Normal human epithelial cells from the mammary gland, MCF10A (a generous gift from our colleague Dr. Saraswati Sukumar (JHU), who obtained them recently from ATCC), and normal human keratinocytes HaCaT (also obtained from ATCC), were cultured in DMEM/F12 medium (Gibco), supplemented with 5% horse serum (Gibco), 5% FBS (Sigma-Aldrich Chemie GmbH, Taufkirchen, Germany ), penicillin streptomycin solution (1×) (Gibco) at 37 °C and 5% CO2. The cells were subcultured twice a week.
(§6) Human epiterial breast cells MCF10A and human keratinocytes HaCaT (1 × 10^4/mL) cells were placed on 96-well plates (Nunc, Roskilde, Denmark). The next day, the cells were exposed to increasing concentrations of compounds 3, 8 and 10 in 0.1, 0.25, 0.5, 1, 2.5, 5, 10 and 25 μM in fresh culture medium. Cytotoxicity was estimated based on the measurements of cytoplasmic lactate dehydrogenase (LDH) activity released from the damaged cells after the 72 h exposure to the compounds. The LDH assay was performed according to the manufacturer’s instructions (Cytotoxicity Detection KitPLUS LDH, Roche, Mannheim, Germany). Absorbance was measured using a microplate at two different wavelengths: “measurement wavelength” (492 nm) and “reference wavelength” (690 nm), using a microplate.

For data set [10], the system named is normal keratinocytes HaCaT cells. As to the kind of experiment: LDH cytotoxicity assay, HaCaT normal cells. The conditions noted are these: HaCaT, 72 h. The class given is cell-based, human. The method, then:
as §4, §5, §6

Data set [11] in a line: Lipophilicity by RP-18 HPLC chromatography. The class given is physicochemical. The conditions noted are these: for -S (slope of log k vs MeOH fraction): MeOH/acetate buffer, pH 7.4; for log kw: pH 7.4, extrapolation to pure water as mobile phase. The text has this: The lipophilicity parameter was estimated for the tested compounds as it is an important feature that influences the pharmacokinetic properties of bioactive compounds [46, 47]. Lipophilicity also determines some biological activities, such as the antiproliferative or fungistatic activity. For lipophilicity determination, reversed-phase column chromatography was used, with the octadecyl C-18 stationary phase and MeOH as the organic modifier in the isocratic conditions.
HPLC measurements were performed using a liquid chromatograph (Knauer, Berlin, Germany) with a dual pump and a UV-visible detector. The measurements were made at 254 or 320 nm at room temperature. A Eurosil Bioselect C18 (5 μm, 300 × 4.6 mm) column was applied as the stationary phase. The mobile phase consisted of different volume mixtures of 20 mM acetate buffer as the aqueous phase, and MeOH as the organic modifier (pH 7.4). The different concentrations of MeOH from 0.5 to 0.90 (v/v) range was used, depending on the structure of the compound at 0.05 intervals. The flow rate was 1 mL/min. Retention time of an unretained solute (t0) was determined by the injection of a small amount of acetone dissolved in water.
Regular changes in the retention coefficients of compounds in a function of the organic modifier MeOH content in the mobile phase are described by the Soczewiński–Wachtmeister equation [56]:log k = log kw + S φ(1)
φ—the volume fraction of organic modifier (MeOH) in the mobile phase; log kw—the intercept; S—slope of the regression curve. Log kw refers to the retention parameter of a compound with pure water as the mobile phase.

In data set [12] the test system is human cancer cell lines (HCV29T, T47D, A549, SW707). As to the kind of experiment: SRB antiproliferative assay, all studied cancer cell lines. In kind it is cell-based. The conditions noted are these: read-out: IC50 range against all studied cells. The method, then:
as §2, §3
Background: In SRB staining, fixed cells bind dye roughly in proportion to their protein.

Molecules are shown by their SMILES.

T1 sequence (P22303 other isoform, or with tags, fused parts or gaps): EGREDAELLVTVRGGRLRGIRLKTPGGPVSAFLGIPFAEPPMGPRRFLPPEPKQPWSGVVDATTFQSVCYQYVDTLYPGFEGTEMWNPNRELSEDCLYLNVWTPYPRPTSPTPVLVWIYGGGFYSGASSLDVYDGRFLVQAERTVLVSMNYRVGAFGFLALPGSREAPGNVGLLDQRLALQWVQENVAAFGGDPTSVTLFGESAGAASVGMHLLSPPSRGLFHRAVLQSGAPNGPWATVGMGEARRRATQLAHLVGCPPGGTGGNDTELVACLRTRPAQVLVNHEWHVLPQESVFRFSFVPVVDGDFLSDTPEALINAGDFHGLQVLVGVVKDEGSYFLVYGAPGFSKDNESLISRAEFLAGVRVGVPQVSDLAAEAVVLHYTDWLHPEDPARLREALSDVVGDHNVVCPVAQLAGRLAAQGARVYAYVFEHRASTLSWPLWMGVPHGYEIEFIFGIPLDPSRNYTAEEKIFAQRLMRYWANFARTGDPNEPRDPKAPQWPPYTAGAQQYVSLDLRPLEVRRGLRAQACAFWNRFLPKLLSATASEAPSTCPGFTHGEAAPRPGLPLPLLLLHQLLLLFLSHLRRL
T3 sequence (P22303 other isoform, or with tags, fused parts or gaps): as above
T2 sequence (P81908 whole entry): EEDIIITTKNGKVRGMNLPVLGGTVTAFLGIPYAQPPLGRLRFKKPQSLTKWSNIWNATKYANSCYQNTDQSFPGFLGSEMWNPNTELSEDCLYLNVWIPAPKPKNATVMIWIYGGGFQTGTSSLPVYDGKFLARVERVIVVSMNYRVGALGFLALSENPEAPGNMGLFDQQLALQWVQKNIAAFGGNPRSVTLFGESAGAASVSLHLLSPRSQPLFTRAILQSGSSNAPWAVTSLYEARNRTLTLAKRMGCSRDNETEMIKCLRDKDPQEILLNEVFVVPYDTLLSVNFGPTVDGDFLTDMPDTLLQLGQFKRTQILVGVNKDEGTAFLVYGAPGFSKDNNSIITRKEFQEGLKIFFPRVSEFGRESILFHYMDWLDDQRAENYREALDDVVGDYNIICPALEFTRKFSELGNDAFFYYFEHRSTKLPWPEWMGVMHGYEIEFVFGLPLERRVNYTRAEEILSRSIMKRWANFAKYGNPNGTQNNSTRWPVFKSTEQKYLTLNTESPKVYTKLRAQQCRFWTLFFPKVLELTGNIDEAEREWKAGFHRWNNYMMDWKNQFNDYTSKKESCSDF

The IC50 is the concentration needed to halve the response being measured. Turning to `Oc1ccc(-c2nc3c(ccc4ccccc43)o2)c(O)c1` [Compound 8, 4-(Naphtho[1,2-d][1,3]oxazol-2-yl)benzene-1,3-diol], the IC50 came to 0.058 ± 0.01 µM in data set [1]; 0.981 ± 0.015 µM in data set [2]; 0.452 ± 0.031 µM in data set [3]; 2.5 ± 1.88 µM in [5]; 4.17 ± 0.19 µM in data set [6]; 2.86 ± 0.18 µM in data set [7]. Besides, the IC50 in [8] is 3.35 ± 0.16 µM. Besides, the “type of AChE inhibition” value in data set [4] is given as “mixed-type inhibitor”; in data set [4] (listed as 4-(Naphtho[1,2-d][1,3]oxazol-2-yl)benzene-1,3-diol) it was “mixed-type inhibition”. Moreover, the Vmax in data set [4] (compound 8 concentration 25 nM) was determined as 0.031 A/min; in [4] (compound 8 concentration 50 nM), 0.023 A/min; in [4] (compound 8 concentration 75 nM), 0.021 A/min. For the same molecule, in data set [9] (0.1–5 µM), the “influence on mammary cells viability (LDH)” value is on record as “no influence”. For the same molecule, the “toxicity to keratinocytes (LDH release)” value in data set [10] (whole tested range 0.1–25 µM) is reported as “toxic”. The “-S (slope of log k vs MeOH fraction)” value in data set [11] turned out to be 4.263. The log kw in data set [11] is 3.936.
In the case of `Oc1cc(O)c(-c2nc3c(ccc4ccccc43)o2)cc1Cl` [Compound 10, 4-Chloro-6-(naphtho[1,2-d][1,3]oxazol-2-yl)benzene-1,3-diol], the “Selectivity for AChE” value in data set [1] (IC50 (BChE)/IC50 (AChE)) is on record as 1.278. Further, the 50% inhibitory concentration (IC50) is 0.694 ± 0.011 µM in data set [1]; 0.887 ± 0.041 µM in data set [2]; 0.633 ± 0.146 µM in data set [3]; 2.24 ± 0.83 µM in [5]; 2.71 ± 0.12 µM in data set [6]; 2.18 ± 1.05 µM in data set [7]. The values for the IC50 in data set [8] and in data set [12] were 2.89 ± 0.34 µM and 2.18 to 2.89 µM, respectively. Besides, in [9] (0.1–5 µM, vs control), the “change in level of lactate dehydrogenase” value was “statistically significant reduction”. The “toxicity to normal breast cells (LDH release)” value in data set [9] (tested concentration to 25 µM) is “not toxic”. Moreover, in data set [10] (tested concentration to 25 µM), the “toxicity to keratinocytes (LDH release)” value was “not toxic”. Moreover, the “-S (slope of log k vs MeOH fraction)” value in data set [11] is listed as 4.996. Moreover, the log kw in [11] is on record as 4.518.
